In brackets after ≈: the same amount, converted by molar mass.
How the values were obtained:
[1] = tested on: Staphylococcus aureus; experiment: Antibacterial activity against Staphylococcus aureus ATCC 29213 after 24 hrs by broth dilution method; type: functional; conditions: ATCC 29213, 24 h
[2] = tested on: Pseudomonas aeruginosa; experiment: Antibacterial activity against Pseudomonas aeruginosa ATCC 27853 after 24 hrs by broth dilution method; type: functional; conditions: ATCC 27853, 24 h
[3] = tested on: Staphylococcus epidermidis; experiment: Antibacterial activity against Staphylococcus epidermidis after 24 hrs by broth dilution method; type: functional
[4] = tested on: Klebsiella pneumoniae; experiment: Antibacterial activity against Klebsiella pneumoniae after 24 hrs by broth dilution method; type: functional
[5] = tested on: Pseudomonas aeruginosa; experiment: Bactericidal activity against Pseudomonas aeruginosa ATCC 27853 incubated for 24 hrs followed by replating on Mueller-Hinton agar and further incubated for 24 hrs; type: functional; conditions: ATCC 27853, 24 h
[6] = tested on: Klebsiella pneumoniae; experiment: Bactericidal activity against Klebsiella pneumoniae incubated for 24 hrs followed by replating on Mueller-Hinton agar and further incubated for 24 hrs; type: functional
[7] = tested on: Staphylococcus aureus; experiment: Bactericidal activity against Staphylococcus aureus ATCC 29213 incubated for 24 hrs followed by replating on Mueller-Hinton agar and further incubated for 24 hrs; type: functional; conditions: ATCC 29213, 24 h
[8] = tested on: Staphylococcus aureus; experiment: Antibacterial activity against methicillin, cefoxytin, levfloxacin-resistant and erythromycin, clindamycin-senstitive Staphylococcus aureus after 24 hrs by broth dilution method; type: functional
[9] = tested on: Staphylococcus aureus; experiment: Antibacterial activity against methicillin, cefoxytin-resistant and levofloxacin, erythromycin, clindamycin-senstitive Staphylococcus aureus after 24 hrs by broth dilution method; type: functional
[10] = tested on: Staphylococcus aureus; experiment: Antibacterial activity against multidrug-resistant Staphylococcus aureus after 24 hrs by broth dilution method; type: functional
[11] = tested on: Pseudomonas aeruginosa; experiment: Antibacterial activity against multidrug-resistant Pseudomonas aeruginosa after 24 hrs by broth dilution method; type: functional
[12] = tested on: Pseudomonas aeruginosa; experiment: Antibacterial activity against ciprofloxacin, imipenem, meronem-resistant and cefepime, piperacillin-tazobactam-sensitive Pseudomonas aeruginosa after 24 hrs by broth dilution method; type: functional
[13] = tested on: Pseudomonas aeruginosa; experiment: Antibacterial activity against ciprofloxacin-resistant and multidrug-sensitive Pseudomonas aeruginosa after 24 hrs by broth dilution method; type: functional
[14] = tested on: Pseudomonas aeruginosa; experiment: Antibacterial activity against multidrug-sensitive Pseudomonas aeruginosa after 24 hrs by broth dilution method; type: functional
[15] = tested on: Klebsiella pneumoniae; experiment: Antibacterial activity against multidrug-sensitive Klebsiella pneumoniae after 24 hrs by broth dilution method; type: functional
[16] = tested on: Enterobacter cloacae; experiment: Antibacterial activity against multidrug-resistant and sensitive Enterobacter cloacae after 24 hrs by broth dilution method; type: functional
[17] = tested on: Escherichia coli; experiment: Antibacterial activity against multidrug-resistant and sensitive Escherichia coli after 24 hrs by broth dilution method; type: functional
[18] = Cytotoxicity against human HSF cells after 72 hrs by MTT assay; type: cell-based
[19] = Cytotoxicity against human HSF cells after 24 hrs by MTT assay; type: cell-based
[20] = tested on: Erythrocyte; experiment: Hemolytic activity in human erythrocytes at >100 uM; type: ADME, cell-based
[21] = Aggregation property of the compound in DMEM culture medium at 1 mM after 1 hr by dynamic light scattering method; type: physicochemical; conditions: 1000 µM
[22] = tested on: Staphylococcus aureus; experiment: Drug interaction with Staphylococcus aureus cellular surface assessed as decrease in zeta potential at 1 mM treated for 1 hr followed by washing and measured by dynamic light scattering method; type: functional
[23] = tested on: Pseudomonas aeruginosa; experiment: Drug interaction with Pseudomonas aeruginosa cellular surface assessed as decrease in zeta potential at 1 mM treated for 1 hr followed by washing and measured by dynamic light scattering method; type: functional
[24] = tested on: Klebsiella pneumoniae; experiment: Ratio of MBC to MIC against Klebsiella pneumoniae; type: functional
[25] = tested on: Pseudomonas aeruginosa; experiment: Ratio of MBC to MIC against Pseudomonas aeruginosa ATCC 27853; type: functional
[26] = tested on: Staphylococcus aureus; experiment: Ratio of MBC to MIC against Staphylococcus aureus ATCC 29213; type: functional
[27] = Aggregation property of the compound assessed as mean hydrodynamic diameter at 1 mM after 1 hr by dynamic light scattering method; type: physicochemical; conditions: 1000 µM

Which results are given for CC(C)[C@H]1CC[C@H](C)C[C@@H]1OP(=S)(S)O[C@H]1C[C@@H](C)CC[C@@H]1C(C)C.Cc1ncc(CO)c(CO)c1O?
MIC [1]: 40 µM; MIC [2]: 320 µM; MIC [3]: 10 µM; MIC [4]: 320 µM

With CC(C)[C@H]1CC[C@H](C)C[C@@H]1OP(=S)(S)O[C@H]1C[C@@H](C)CC[C@@H]1C(C)C.CN1CCC[C@H]1c1cccnc1 as the compound, how does the MIC [1] read?
The MIC was 20 µM.

And the MIC [2]?
Its MIC is 320 µM.

And the MIC [3]?
The MIC was 20 µM.

And the MIC [4]?
Its MIC is 320 µM.

Which MIC [1] does the source give for C[C@@H]1[C@@H](OP(=S)(S)O[C@H]2C[C@H]3C[C@@H]([C@@H]2C)C3(C)C)C[C@H]2C[C@@H]1C2(C)C.NC(=O)c1cccnc1 here?
Its MIC is 300 µM.

And the MIC [2]?
The MIC was 4780 µM.

What about the MIC [3] of the same compound?
Its MIC is 300 µM.

And the MIC [4]?
Its MIC is 4780 µM.

With CC1(C)[C@H]2CC[C@]1(C)[C@H](OP(=S)(S)O[C@@H]1C[C@@H]3CC[C@@]1(C)C3(C)C)C2 as the compound, how does the MIC [1] read?
Its MIC is 6210 µM (≈ 2500 µg/mL).

And the MIC [2]?
The MIC was 6210 µM (≈ 2500 µg/mL).

And the MIC [3]?
Its MIC is 6210 µM (≈ 2500 µg/mL).

And the MIC [4]?
The MIC was 6210 µM (≈ 2500 µg/mL).

With CN1CCC[C@H]1c1cccnc1.Cc1ccc(C(C)C)c(OP(=S)(S)Oc2cc(C)ccc2C(C)C)c1 as the compound, how does the MIC [1] read?
The MIC was 320 µM.

What about the MIC [2] of the same compound?
The MIC was 320 µM.

And the MIC [3]?
Its MIC is 320 µM.

What about the MIC [4] of the same compound?
The MIC was 2530 µM.

With CC(C)[C@@H]1CC[C@@H](C)C[C@H]1OP(=S)(S)O[C@@H]1C[C@H](C)CC[C@H]1C(C)C.CN1CCC[C@H]1c1cccnc1 as the compound, how does the MIC [1] read?
The MIC was 20 µM.

And the MIC [2]?
The MIC was 320 µM.

And the MIC [3]?
Its MIC is 20 µM.

What about the MIC [4] of the same compound?
The MIC was 320 µM.

What about the MBC [5] of the same compound?
The MBC was 320 µM.

And the MBC [6]?
The MBC was 640 µM.

What about the MBC [7] of the same compound?
The MBC was 20 µM.

And the MIC [8]?
Its MIC is 11 µM.

And the MIC [9]?
Its MIC is 11 µM.

And the MIC [10]?
Its MIC is 23 µM.

And the MIC [11]?
Its MIC is 360 µM.

And the MIC [12]?
The MIC was 360 µM.

And the MIC [13]?
The MIC was 360 µM.

What about the MIC [14] of the same compound?
The MIC was 360 µM.

What about the MIC [15] of the same compound?
Its MIC is 360 µM.

And the MIC [16]?
The MIC was 360 µM.

What about the MIC [17] of the same compound?
Its MIC is 360 µM.

And the IC50 [18]?
The IC50 was 57.6 µM.

And the IC50 [19]?
Its IC50 is 81.3 µM.

And the Activity [20]?
The Activity was “Toxic”.

And the Activity [21]?
Its Activity is “Active”.

What about the “fold change (FC)” value [22] of the same compound?
The value was 1.2.

And the “fold change (FC)” value [23]?
Its value is 1.2.

What about the Ratio [24] of the same compound?
Its Ratio is 1.

What about the Ratio [25] of the same compound?
The Ratio was 1.

What about the Ratio [26] of the same compound?
The Ratio was 1.

And the Activity [27]?
Its Activity is 141.7 nm.

Which results are given for CCCCOP(=S)(S)OCCCC.NC(=O)c1cccnc1?
MIC [1]: 4130 µM; MIC [2]: 4130 µM; MIC [3]: 4130 µM; MIC [4]: 4130 µM

Which MIC [1] does the source give for CC1(C)[C@H]2CC[C@](C)(C2)[C@H]1OP(=S)(S)O[C@H]1C(C)(C)[C@H]2CC[C@]1(C)C2 here?
Its MIC is 240 µM (≈ 96.6 µg/mL).

And the MIC [2]?
Its MIC is 1940 µM (≈ 781 µg/mL).

What about the MIC [3] of the same compound?
Its MIC is 240 µM (≈ 96.6 µg/mL).

And the MIC [4]?
Its MIC is 1940 µM (≈ 781 µg/mL).

With C[C@@H]1[C@@H](OP(=S)(S)O[C@H]2C[C@H]3C[C@@H]([C@@H]2C)C3(C)C)C[C@H]2C[C@@H]1C2(C)C as the compound, how does the MIC [1] read?
The MIC was 390 µM (≈ 157 µg/mL).

What about the MIC [2] of the same compound?
The MIC was 1560 µM (≈ 628 µg/mL).

What about the MIC [3] of the same compound?
Its MIC is 190 µM (≈ 76.5 µg/mL).

What about the MIC [4] of the same compound?
The MIC was 3110 µM (≈ 1250 µg/mL).

For CC1(C)[C@H]2CC[C@](C)(C2)[C@H]1OP(=S)(S)O[C@H]1C(C)(C)[C@H]2CC[C@]1(C)C2.Cc1ncc(CO)c(CO)c1O, which MIC [1] is on record?
Its MIC is 20 µM.

And the MIC [2]?
Its MIC is 320 µM.

What about the MIC [3] of the same compound?
The MIC was 20 µM.

And the MIC [4]?
Its MIC is 320 µM.

Which results are given for CC(C)[C@@H]1CC[C@@H](C)C[C@H]1OP(=S)(S)O[C@@H]1C[C@H](C)CC[C@H]1C(C)C.Cc1ncc(CO)c(CO)c1O?
MIC [1]: 20 µM; MIC [2]: 320 µM; MIC [3]: 10 µM; MIC [4]: 320 µM; MBC [5]: 320 µM; MBC [6]: 640 µM; MBC [7]: 40 µM; MIC [8]: 20 µM; MIC [9]: 20 µM; MIC [10]: 20 µM; MIC [11]: 323 µM; MIC [12]: 323 µM; MIC [13]: 323 µM; MIC [14]: 323 to 647 µM; MIC [15]: 323 µM; MIC [16]: 323 µM; MIC [17]: 323 µM; IC50 [18]: 48.6 µM; IC50 [19]: 92.2 µM; Activity [20]: Toxic; Activity [21]: Active; fold change (FC) [22]: 1.2; fold change (FC) [23]: 1.2; Ratio [24]: 2; Ratio [25]: 2; Ratio [26]: 2; Activity [27]: 108.9 nm

From ChEMBL document CHEMBL4371024, “Synthesis and characterization of pyridoxine, nicotine and nicotinamide salts of dithiophosphoric acids as antibacterial agents against resistant wound infection” (Bioorg Med Chem, 2019)
